Test results taken from PubChem BioAssay (NCI).
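Exposure lasted 48 hours, with cells grown in 96-well plates and compounds tested at five concentrations. GI50 is the concentration that inhibits growth by half. Definition used: TGI = concentration required for complete inhibition of growth.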

Experiments:
Experiment in all cases: NCI tumour cell line growth inhibition, 48 h
[1] = test system: 786-0 renal
[2] = test system: A549 NSCLC
[3] = test system: ACHN renal
[4] = test system: BT-549 breast
[5] = test system: CAKI-1 renal
[6] = test system: DU-145 prostate
[7] = test system: EKVX NSCLC
[8] = test system: HCC-2998 colon
[9] = test system: HCT-116 colon
[10] = test system: HCT-15 colon
[11] = test system: HL-60(TB) leukemia
[12] = test system: HOP-62 NSCLC
[13] = test system: HOP-92 NSCLC
[14] = test system: HS 578T breast
[15] = test system: HT29 colon
[16] = test system: IGROV1 ovarian
[17] = test system: K-562 leukemia
[18] = test system: KM12 colon
[19] = test system: LOX IMVI melanoma
[20] = test system: M14 melanoma
[21] = test system: MALME-3M melanoma
[22] = test system: MCF7 breast
[23] = test system: MDA-MB-231 breast
[24] = test system: MDA-MB-435
[25] = test system: MOLT-4 leukemia
[26] = test system: NCI-H226 lung
[27] = test system: NCI-H23 lung
[28] = test system: NCI-H460 lung
[29] = test system: NCI-H522 lung
[30] = test system: NCI/ADR-RES ovarian
[31] = test system: OVCAR-3 ovarian
[32] = test system: OVCAR-4 ovarian
[33] = test system: OVCAR-5 ovarian
[34] = test system: OVCAR-8 ovarian
[35] = test system: PC-3 prostate
[36] = test system: RPMI-8226 leukemia
[37] = test system: RXF 393 renal
[38] = test system: SF-268 CNS
[39] = test system: SF-295 CNS
[40] = test system: SF-539 CNS
[41] = test system: SK-MEL-2 melanoma
[42] = test system: SK-MEL-28 melanoma
[43] = test system: SK-MEL-5 melanoma
[44] = test system: SK-OV-3 ovarian
[45] = test system: SN12C renal
[46] = test system: SNB-19 CNS
[47] = test system: SNB-75 CNS
[48] = test system: SR leukemia
[49] = test system: SW-620 colon
[50] = test system: T-47D breast
[51] = test system: TK-10 renal
[52] = test system: U251 CNS
[53] = test system: UACC-257 melanoma
[54] = test system: UACC-62 melanoma
[55] = test system: UO-31 renal

Compound: COC(=O)/C=C1\S/C(=N\NC(=O)c2cc3ccc2/C=C\c2ccc(cc2)/C=C\3)N(c2ccccc2)C1=O
- GI50 [1]: 2 µM
- TGI [1]: 4.38 µM
- GI50 [2]: 2.83 µM
- TGI [2]: 8.37 µM
- GI50 [3]: 1.78 µM
- TGI [3]: 3.29 µM
- GI50 [4]: 2.22 µM
- TGI [4]: 5.35 µM
- GI50 [5]: 3.74 µM
- TGI [5]: 30 µM
- GI50 [6]: 5.11 µM
- TGI [6]: 35.3 µM
- GI50 [7]: 1.91 µM
- TGI [7]: 4.23 µM
- GI50 [8]: 1.78 µM
- TGI [8]: 3.45 µM
- GI50 [9]: 1.79 µM
- TGI [9]: 3.67 µM
- GI50 [10]: 1.87 µM
- TGI [10]: 4.05 µM
- GI50 [11]: 2.7 µM
- TGI [11]: > 100 µM
- GI50 [12]: 2.68 µM
- TGI [12]: 6.97 µM
- GI50 [13]: 1.91 µM
- TGI [13]: 9.14 µM
- GI50 [14]: 3.49 µM
- TGI [14]: > 100 µM
- GI50 [15]: 1.93 µM
- TGI [15]: 4.07 µM
- GI50 [16]: 1.66 µM
- TGI [16]: 3.27 µM
- GI50 [17]: 3.15 µM
- TGI [17]: > 100 µM
- GI50 [18]: 2.03 µM
- TGI [18]: 4.15 µM
- GI50 [19]: 1.69 µM
- TGI [19]: 3.37 µM
- GI50 [20]: 3.27 µM
- TGI [20]: 15.4 µM
- GI50 [21]: 3.27 µM
- TGI [21]: 21.4 µM
- GI50 [22]: 1.87 µM
- TGI [22]: 4.95 µM
- GI50 [23]: 2.63 µM
- TGI [23]: 7.46 µM
- GI50 [24]: 5.44 µM
- TGI [24]: > 100 µM
- GI50 [25]: 3.12 µM
- TGI [25]: > 100 µM
- GI50 [26]: 4.38 µM
- TGI [26]: 25.5 µM
- GI50 [27]: 1.95 µM
- TGI [27]: 4.15 µM
- GI50 [28]: 2.08 µM
- TGI [28]: 4.29 µM
- GI50 [29]: 4.89 µM
- TGI [29]: > 100 µM
- GI50 [30]: 2.92 µM
- TGI [30]: 10.6 µM
- GI50 [31]: 1.8 µM
- TGI [31]: 3.61 µM
- GI50 [32]: 3.17 µM
- TGI [32]: 9.88 µM
- GI50 [33]: 1.92 µM
- TGI [33]: 3.84 µM
- GI50 [34]: 3.08 µM
- TGI [34]: > 100 µM
- GI50 [35]: 1.71 µM
- TGI [35]: 3.63 µM
- GI50 [36]: 2.15 µM
- TGI [36]: 5.69 µM
- GI50 [37]: 1.52 µM
- TGI [37]: 3.86 µM
- GI50 [38]: 3.09 µM
- TGI [38]: 11.2 µM
- GI50 [39]: 2.07 µM
- TGI [39]: 4.19 µM
- GI50 [40]: 1.79 µM
- TGI [40]: 3.32 µM
- GI50 [41]: 2.65 µM
- TGI [41]: 7.76 µM
- GI50 [42]: 2.97 µM
- TGI [42]: 9.87 µM
- GI50 [43]: 7.56 µM
- TGI [43]: > 100 µM
- GI50 [44]: 3.55 µM
- TGI [44]: 75.3 µM
- GI50 [45]: 2.27 µM
- TGI [45]: 5.94 µM
- GI50 [46]: 1.95 µM
- TGI [46]: 4.25 µM
- GI50 [47]: 5.44 µM
- TGI [47]: > 100 µM
- GI50 [48]: 2.46 µM
- TGI [48]: > 100 µM
- GI50 [49]: 1.85 µM
- TGI [49]: 3.66 µM
- GI50 [50]: 1.54 µM
- TGI [50]: 3.65 µM
- GI50 [51]: 2.03 µM
- TGI [51]: 5.6 µM
- GI50 [52]: 1.89 µM
- TGI [52]: 4 µM
- GI50 [53]: 5.14 µM
- TGI [53]: > 100 µM
- GI50 [54]: 1.96 µM
- TGI [54]: 4.21 µM
- GI50 [55]: 1.53 µM
- TGI [55]: 3.08 µM
